Converted amounts (≈) assume the structure as drawn.
System: Mycobacterium tuberculosis
Assay: Antituberculosis activity against Mycobacterium tuberculosis H37Rv
Format: functional

| Structure (SMILES) | MIC |
| --- | --- |
| NNC(=O)c1ccncc1 [ISONIAZID] | 1 µg/mL (≈ 7.29 µM) |
| C[C@@H]1C[C@]23CC[C@@H]4[C@](C)(CCC[C@]4(C)C(=O)O)[C@H]2CC[C@@]1(OC(=O)CCCCCCC(=O)O[C@]12CC[C@@H]4[C@](CC[C@H]5[C@@]4(C)CCC[C@@]5(C)C(=O)O)(C[C@@H]1C)C2)C3 | 20 µg/mL (≈ 25.7 µM) |
| C[C@@H]1C[C@]23CC[C@@H]4[C@]5(C)CCC[C@]4(C)C(=O)OCCCOC(=O)CC(=O)OCCCOC(=O)[C@]4(C)CCC[C@@]6(C)[C@@H]7CC[C@@]8(C[C@@]7(CC[C@@H]64)C[C@@H]8C)OC(=O)CCCCCCCCC(=O)O[C@]1(CC[C@@H]25)C3 | 20 µg/mL (≈ 20.2 µM) |
| C[C@]12CC[C@H]3[C@](CC[C@@H]4[C@]3(C)CCC[C@]4(C)C(=O)O)(C[C@@H]1OC(=O)CCCCCCCCC(=O)O[C@@H]1C[C@]34CC[C@H]5[C@@](C)(CCC[C@@]5(C)C(=O)O)[C@@H]3CC[C@@]1(C)C4)C2 | 12.5 µg/mL (≈ 15.5 µM) |
| C[C@@H]1C[C@]23CC[C@@H]4[C@]5(C)CCC[C@]4(C)C(=O)OC(=O)[C@]4(C)CCC[C@@]6(C)[C@@H]7CC[C@@]8(C[C@@]7(CC[C@@H]64)C[C@@H]8C)OC(=O)CCCCCCCCC(=O)O[C@]1(CC[C@@H]25)C3 | 5 µg/mL (≈ 6.34 µM) |
| C[C@]12CC[C@H]3[C@](CC[C@@H]4[C@]3(C)CCC[C@]4(C)C(=O)O)(C[C@@H]1OC(=O)CCCCCCC(=O)O[C@@H]1C[C@]34CC[C@H]5[C@@](C)(CCC[C@@]5(C)C(=O)O)[C@@H]3CC[C@@]1(C)C4)C2 | 12.5 µg/mL (≈ 16 µM) |
| C[C@@H]1C[C@]23CC[C@@H]4[C@](C)(CCC[C@]4(C)C(=O)O)[C@H]2CC[C@@]1(OC(=O)CCCCCCCCC(=O)O[C@]12CC[C@@H]4[C@](CC[C@H]5[C@@]4(C)CCC[C@@]5(C)C(=O)O)(C[C@@H]1C)C2)C3 | 20 µg/mL (≈ 24.8 µM) |
| C[C@]12CC[C@H]3[C@@]4(CC[C@@H]5[C@]3(C)CCC[C@]5(C)C(=O)OCCCOC(=O)CC(=O)OCCCOC(=O)[C@]3(C)CCC[C@@]5(C)[C@@H]6CC[C@@]7(C)C[C@]6(CC[C@@H]53)C[C@H]7OC(=O)CCCCCCCCC(=O)O[C@H]1C4)C2 | 1 µg/mL (≈ 1.01 µM) |
| C[C@]12CC[C@H]3[C@](CC[C@@H]4[C@]3(C)CCC[C@]4(C)C(=O)O)(C[C@@H]1OC(=O)CC(=O)O[C@@H]1C[C@]34CC[C@H]5[C@@](C)(CCC[C@@]5(C)C(=O)O)[C@@H]3CC[C@@]1(C)C4)C2 | 12.5 µg/mL (≈ 17.6 µM) |
| C[C@H]1C[C@@]23CC[C@H]4[C@@](C)(CCC[C@@]4(C)C(=O)O)[C@@H]2CC[C@]1(O)C3 | 20 µg/mL (≈ 62.4 µM) |
| C[C@@]12CC[C@@H]3[C@@](CC[C@H]4[C@@]3(C)CCC[C@@]4(C)C(=O)O)(CC1=O)C2 [ISOSTEVIOL] | 50 µg/mL (≈ 157 µM) |
| C[C@@H]1C[C@]23CC[C@@H]4[C@](C)(CCC[C@]4(C)C(=O)O)[C@H]2CC[C@@]1(OC(=O)CCCCCCCCC(=O)O)C3 | 10 µg/mL (≈ 19.8 µM) |
| C[C@@H]1C[C@]23CC[C@@H]4[C@](C)(CCC[C@]4(C)C(=O)O)[C@H]2CC[C@@]1(OC(=O)CC(=O)O[C@]12CC[C@@H]4[C@](CC[C@H]5[C@@]4(C)CCC[C@@]5(C)C(=O)O)(C[C@@H]1C)C2)C3 | 5 µg/mL (≈ 7.05 µM) |

Reference: ChEMBL document CHEMBL2163231, “Synthesis and antituberculosis activity of novel unfolded and macrocyclic derivatives of ent-kaurane steviol” (2012)
